Laboratory results published in patent publication US9023789B2, “Amylin analogs and pharmaceutical compositions thereof” (Novo Nordisk A/S, priority 2012, dated 2015).
Numbered stars: 1 amine (or outer) side, 2 acyl side, 3 side chain; on linkers, the order of the positions; unused ones are H or OH. Bridge positions count the residues as written; N and C are the ends. Peptide text beside a SMILES is read from it. * marks the point of attachment. C20 diacid = O=C(O)CCCCCCCCCCCCCCCCCCC(=O)*; γGlu = O=C(O)[C@H](CCC(=O)[*:2])N[*:1]

Assays:
[1] = target: T1, human calcitonin receptor (Homo sapiens, UniProt P30988); assay: ASSAY (VII) binding to the human calcitonin receptor (SPA, 125I-Calcitonin); conditions: read-out: hCTR bind IC50;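 further: cell membranes (35 ng/µL) combined with SPA beads in 40 µL of pH 7.4 Hepes buffer, 384-well format, signal counted on a TopCounter instrument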
T1 construct: expressed in transfected cells
T1 sequence (P30988 25-474): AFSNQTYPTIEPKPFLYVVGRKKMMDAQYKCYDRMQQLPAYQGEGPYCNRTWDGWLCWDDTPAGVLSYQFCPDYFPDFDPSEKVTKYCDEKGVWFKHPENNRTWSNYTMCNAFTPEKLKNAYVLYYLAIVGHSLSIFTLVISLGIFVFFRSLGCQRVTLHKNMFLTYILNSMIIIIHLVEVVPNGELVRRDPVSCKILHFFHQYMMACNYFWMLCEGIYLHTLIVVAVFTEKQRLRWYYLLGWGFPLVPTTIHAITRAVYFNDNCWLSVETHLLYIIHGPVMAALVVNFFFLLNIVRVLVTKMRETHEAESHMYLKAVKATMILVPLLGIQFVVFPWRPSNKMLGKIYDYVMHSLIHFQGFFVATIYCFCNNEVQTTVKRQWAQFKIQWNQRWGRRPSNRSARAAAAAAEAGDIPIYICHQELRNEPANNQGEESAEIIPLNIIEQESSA

[2] = target: T2, human amylin 3(a) receptor (human calcitonin receptor + RAMP-3) in BHK570 cells (Homo sapiens, UniProt O60896+P30988); assay: ASSAY (II)a functional assay, human amylin receptor (CRE luciferase); type: cell-based; conditions: for EC50: human amylin receptor functional potency, assay (II), read-out: hAmylin-R funct. EC50
T2 construct: expressed in transfected cells
In short: (§1)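 BHK cells stably carrying a CRE-luciferase reporter plus calcitonin receptor, or calcitonin receptor with RAMP-3 for the amylin 3(a) receptor, were seeded and kept overnight at 37° C. Compounds were added in assay medium with 10% FBS and 10 mM Hepes, pH 7.4, for 3 hours at 37° C, then luminescence was counted.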

[3] = target: T3, human calcitonin (a) receptor in BHK570 cells (Homo sapiens, UniProt P30988); assay: ASSAY (II)a functional assay, human calcitonin receptor (CRE luciferase); type: cell-based; conditions: read-out: hCTR funct. EC50
T3 construct: expressed in transfected cells
T3 sequence (P30988 25-474): T1 sequence (P30988 25-474)
In short: as §1

[4] = target: T4, human amylin receptor (membranes from Amylin 3(a)/CRE-luc cells) (Homo sapiens, UniProt O60896+P30988); assay: ASSAY (V) binding to the human amylin receptor (SPA, 125I-rat amylin); conditions: for IC50: Table 4, read-out: hAmylin-R bind IC50;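 on all read-outs here: competition binding of cell membranes (35 ng/µL) mixed with SPA beads in 384-well plates at 40 µL total volume, read by scintillation counting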
T4 construct: expressed in transfected cells
T4 sequence (P30988 25-474): T1 sequence (P30988 25-474)
T4 sequence (O60896 24-148 partner): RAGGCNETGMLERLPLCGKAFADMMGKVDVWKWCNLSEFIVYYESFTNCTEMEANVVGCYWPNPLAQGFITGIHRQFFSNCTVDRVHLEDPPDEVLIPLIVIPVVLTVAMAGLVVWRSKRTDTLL

[5] = hCTR funct. EC50 / hAmylin-R funct. EC50
[6] = hCTR funct. EC50 divided by hAmylin-R funct. EC50
[7] = hCTR funct. EC50 over hAmylin-R funct. EC50
[8] = human functional selectivity: hCTR funct. EC50 / hAmylin-R funct. EC50
[9] = Table 5, selectivity, hCTR bind IC50 / hAmylin-R bind IC50
[10] = Table 7, human binding selectivity, included for comparison

SMILES	IC50 [1] [nM]	Ratio hCT/hAmylin funct. [2, 5]	Ratio hCT/hAmylin funct. [2, 6]	Ratio hCT/hAmylin funct. [2, 7]	EC50 [2] [nM]	Ratio hCT/hAmylin funct. [2, 8]	EC50 [3] [nM]	IC50 [4] [nM]	Ratio hCT/hAmylin binding [4, 9]	Ratio hCT/hAmylin binding [4, 10]	Ratio hCT/hAmylin binding ([4]; Table 5a, selectivity, hCTR bind IC50 / hAmylin-R bind IC50)	Ratio hCT/hAmylin binding ([4]; Table 5b, selectivity, hCTR bind IC50 / hAmylin-R bind IC50)	Ratio hCT/hAmylin binding ([4]; Table 5c, selectivity, hCTR bind IC50 / hAmylin-R bind IC50)	Ratio hCT/hAmylin binding ([4]; Table 7a (preferred compounds), human binding selectivity, included for comparison)	Ratio hCT/hAmylin binding ([4]; ratio of human calcitonin receptor binding IC50 to human amylin receptor binding IC50)
CC[C@H](C)[C@H](NC(=O)[C@H](C)NC(=O)CNC(=O)[C@H](Cc1ccccc1)NC(=O)[C@H](CC(N)=O)NC(=O)[C@@H]1CCCN1C(=O)[C@H](CO)NC(=O)[C@H](CO)NC(=O)[C@H](Cc1c[nH]cn1)NC(=O)[C@H](CCCNC(=N)N)NC(=O)[C@H](CC(C)C)NC(=O)[C@H](Cc1ccccc1)NC(=O)[C@H](CCC(=O)O)NC(=O)[C@H](C)NC(=O)[C@H](CC(C)C)NC(=O)[C@H](CCCNC(=N)N)NC(=O)[C@H](CCC(N)=O)NC(=O)[C@@H](NC(=O)[C@H](C)NC(=O)[C@@H]1CSSC[C@H](NC(=O)[C@H](CCCCN)NC(=O)CC[C@H](NC(=O)CCCCCCCCCCCCCCCCCCC(=O)O)C(=O)O)C(=O)N[C@@H](CC(N)=O)C(=O)N[C@@H]([C@@H](C)O)C(=O)N[C@@H](C)C(=O)N[C@@H]([C@@H](C)O)C(=O)N1)[C@@H](C)O)C(=O)N1CCC[C@H]1C(=O)N[C@@H](CO)C(=O)N[C@@H](CO)C(=O)N[C@H](C(=O)N[C@@H](CC(N)=O)C(=O)N[C@H](C(=O)NCC(=O)N[C@@H](CO)C(=O)N[C@@H](CC(N)=O)C(=O)N[C@H](C(=O)N1CCC[C@H]1C(N)=O)[C@@H](C)O)C(C)C)[C@@H](C)O [Example 8] ({C20 diacid-γGlu}-KCNTATCATQRLAEFLRHSSPNFGAIPSSTNVGSNTP-NH2; disulfide 2-7)	0.038	1.1	1.1	1.1	0.082	1.1	0.087	0.072	0.5	0.5	–	–	–	–	–
CC[C@H](C)[C@H](NC(=O)[C@H](C)NC(=O)CNC(=O)[C@H](Cc1ccccc1)NC(=O)[C@H](CC(N)=O)NC(=O)[C@@H]1CCCN1C(=O)[C@H](CO)NC(=O)[C@H](CO)NC(=O)[C@H](Cc1c[nH]cn1)NC(=O)[C@H](CCCNC(=N)N)NC(=O)[C@H](CC(C)C)NC(=O)[C@H](Cc1ccccc1)NC(=O)[C@H](CC(=O)O)NC(=O)[C@H](C)NC(=O)[C@H](CC(C)C)NC(=O)[C@H](CCCNC(=N)N)NC(=O)[C@H](CCC(N)=O)NC(=O)[C@@H](NC(=O)[C@H](C)NC(=O)[C@@H]1CSSC[C@H](NC(=O)[C@H](CCCCN)NC(=O)CC[C@H](NC(=O)CCCCCCCCCCCCCCCCCCC(=O)O)C(=O)O)C(=O)N[C@@H](CC(N)=O)C(=O)N[C@@H]([C@@H](C)O)C(=O)N[C@@H](C)C(=O)N[C@@H]([C@@H](C)O)C(=O)N1)[C@@H](C)O)C(=O)N1CCC[C@H]1C(=O)N[C@@H](CO)C(=O)N[C@@H](CO)C(=O)N[C@H](C(=O)N[C@@H](CC(N)=O)C(=O)N[C@H](C(=O)NCC(=O)N[C@@H](CO)C(=O)N[C@@H](CC(N)=O)C(=O)N[C@H](C(=O)N1CCC[C@H]1C(N)=O)[C@@H](C)O)C(C)C)[C@@H](C)O [Example 10] ({C20 diacid-γGlu}-KCNTATCATQRLADFLRHSSPNFGAIPSSTNVGSNTP-NH2; disulfide 2-7 (inferred))	0.099	1.0	1.0	1.0	0.072	1.0	0.07	0.082	1.2	1.2	–	–	–	–	–
CC[C@H](C)[C@H](NC(=O)[C@H](C)NC(=O)CNC(=O)[C@H](Cc1ccccc1)NC(=O)[C@H](CC(N)=O)NC(=O)[C@@H]1CCCN1C(=O)[C@H](CO)NC(=O)[C@H](CO)NC(=O)[C@H](Cc1c[nH]cn1)NC(=O)[C@H](CCCNC(=N)N)NC(=O)[C@H](CC(C)C)NC(=O)[C@H](Cc1ccccc1)NC(=O)[C@H](CCC(=O)O)NC(=O)[C@H](C)NC(=O)[C@H](CC(C)C)NC(=O)[C@H](CCCNC(=N)N)NC(=O)[C@H](CCC(N)=O)NC(=O)[C@@H](NC(=O)[C@H](C)NC(=O)[C@@H]1CSSC[C@H](NC(=O)[C@H](CCCCN)NC(=O)CC[C@H](NC(=O)CCCCCCCCCCCCCCCCCCC(=O)O)C(=O)O)C(=O)N[C@@H](CC(N)=O)C(=O)N[C@@H]([C@@H](C)O)C(=O)N[C@@H](C)C(=O)N[C@@H]([C@@H](C)O)C(=O)N1)[C@@H](C)O)C(=O)N1CCC[C@H]1C(=O)N[C@@H](CO)C(=O)N[C@@H](CO)C(=O)N[C@H](C(=O)N[C@@H](CC(N)=O)C(=O)N[C@H](C(=O)NCC(=O)N[C@@H](CO)C(=O)N[C@@H](CC(=O)O)C(=O)N[C@H](C(=O)N1CCC[C@H]1C(N)=O)[C@@H](C)O)C(C)C)[C@@H](C)O [Example 11] ({C20 diacid-γGlu}-KCNTATCATQRLAEFLRHSSPNFGAIPSSTNVGSDTP-NH2; disulfide 2-7 (inferred))	0.101	0.9	0.9	0.9	0.12	0.9	0.112	0.105	1.0	1.0	–	–	–	–	–
CC[C@H](C)[C@H](NC(=O)[C@H](C)NC(=O)CNC(=O)[C@H](Cc1ccccc1)NC(=O)[C@H](CC(N)=O)NC(=O)[C@@H]1CCCN1C(=O)[C@H](CO)NC(=O)[C@H](CO)NC(=O)[C@H](Cc1c[nH]cn1)NC(=O)[C@H](CCCNC(=N)N)NC(=O)[C@H](CC(C)C)NC(=O)[C@H](Cc1ccccc1)NC(=O)[C@H](CCC(=O)O)NC(=O)[C@H](C)NC(=O)[C@H](CC(C)C)NC(=O)[C@H](CCCNC(=N)N)NC(=O)[C@H](CCC(N)=O)NC(=O)[C@@H](NC(=O)[C@H](C)NC(=O)[C@@H]1CSSC[C@H](NC(=O)[C@H](CCCCN)NC(=O)CC[C@H](NC(=O)CC[C@H](NC(=O)CCCCCCCCCCCCCCCCCCC(=O)O)C(=O)O)C(=O)O)C(=O)N[C@@H](CC(N)=O)C(=O)N[C@@H]([C@@H](C)O)C(=O)N[C@@H](C)C(=O)N[C@@H]([C@@H](C)O)C(=O)N1)[C@@H](C)O)C(=O)N1CCC[C@H]1C(=O)N[C@@H](CO)C(=O)N[C@@H](CO)C(=O)N[C@H](C(=O)N[C@@H](CC(N)=O)C(=O)N[C@H](C(=O)NCC(=O)N[C@@H](CO)C(=O)N[C@@H](CC(N)=O)C(=O)N[C@H](C(=O)N[C@@H](Cc1ccc(O)cc1)C(N)=O)[C@@H](C)O)C(C)C)[C@@H](C)O [Example 15] ({C20 diacid-γGlu-γGlu}-KCNTATCATQRLAEFLRHSSPNFGAIPSSTNVGSNTY-NH2; disulfide 2-7 (inferred))	15.5	–	8.9	8.9	0.386	8.9	3.43	0.597	26.0	26.0	26.0	26.0	26.0	26.0	26.0
